# Active and inactive are the calls of the source.
# What was measured:
# BJ [1] = assay: cells; type: functional, cell-based, Homo sapiens; details: bj
# X-box-binding protein 1 = X-box-binding protein 1 (Homo sapiens, UniProt P17861); type: functional, Cricetulus griseus;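 further: confirmatory dose-response counter-screen serving a CHOP assay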
# BJ [2] = assay: BJ-TERT fibroblast viability loss – cell-based, RAS-independent, luminescence, dose response (AID 1933); type: functional, Homo sapiens; details: bj
# BJ [3] = assay: BJ-TERT-LT-ST fibroblast viability loss – cell-based, RAS-independent, luminescence, dose response (AID 1935); type: functional, Homo sapiens; details: bj;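 further: BJ fibroblasts immortalized with TERT plus LT and ST oncogenes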
# [4] = Vero E6 cell cytotoxicity, dose response, cytotoxicity control for non-replicating M. tuberculosis project, secondary assay (AID 492998); type: functional, VeroE6; details: Vero C1008
# cells = type: functional
# [5] = THP-1 cell cytotoxicity, dose response, cytotoxicity control for non-replicating M. tuberculosis project (AID 489025); type: functional
# [6] = HepG2 cell cytotoxicity, dose response, cytotoxicity control for non-replicating M. tuberculosis project (AID 489018); type: functional; details: Mycobacterium tuberculosis
# [7] = NIH3T3 cell viability loss – ATP luminescence, mouse fibroblasts, counter-screen, dose response (AID 2010); type: functional, cell-based;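 further: cells exposed to compound for about 90 hours before reading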
# [8] = Trypanosoma cruzi growth suppression in host cells – NIH3T3 host cells, beta-gal luminescence, confirmation (AID 2044); type: functional, cell-based;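 further: intracellular parasites grown in NIH/3T3 mouse fibroblasts as host cells; luminescent beta-galactosidase reporter signal from transgenic T. cruzi replicating inside host cells; inhibitors lower the luminescence signal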
# [9] = viability of HCT116 lacking mutant beta-catenin – cell-based, human colon tumor, dose response (AID 1045); type: functional;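 further: HCT116 colon tumor cells with beta catenin knocked out; cells exposed to compound for 60 hours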
# [10] = target: T1, E3 ubiquitin-protein ligase XIAP (Homo sapiens, UniProt P98170); assay: Counter Screen using XIAP-Bir3 for Chemical Antagonists of Bir1/2 domains of IAP-family anti-apoptotic proteins. [Related pubchem assays (depositor defined):AID1018, AID1449, AID1514, AID1638, AID1749, AID1750, AID488957, AID488963]
# [11] = viability of PTEN-deleted HCT116 cells – cell-based, HCT116 PTEN knockout, dose response (AID 1047); type: functional;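 further: HCT116 colon tumor cells with PTEN knocked out; cells exposed to compound for 60 hours before readout; potency for loss of cell viability measured by luminescence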
# [12] = target: T1, E3 ubiquitin-protein ligase XIAP; assay: small molecules displacing peptide from XIAP – biochemical, IAP family, fluorescence polarization (AID 1018); type: functional
# [13] = target: Induced myeloid leukemia cell differentiation protein Mcl-1 (Homo sapiens, UniProt Q07820); type: functional
# [14] = reduction of Shn3 3'UTR-driven luciferase in osteoblasts – cell-based, Clone20 osteoblasts, firefly luciferase, cherry-picked, dose response (AID 624132); type: functional;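 further: firefly luciferase luminescence from reporter carrying the Shn3 3'UTR in osteoblasts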
# [15] = target: DNA dC->dU-editing enzyme APOBEC-3G (Homo sapiens, UniProt Q9HC16); assay: Dose Response confirmation of small molecule APOBEC3G DNA Deaminase Inhibitors via a fluorescence-based single-stranded DNA deaminase assay. [Related pubchem assays (depositor defined):AID493012, AID493028]; type: functional
# Beta-galactosidase = Beta-galactosidase (Escherichia coli, UniProt Q8VNN2); assay: detection-enzyme interference by beta-gal modulators – biochemical, E. coli enzyme, set 3, artefact control for CCR6 antagonist project, dose response (AID 504712); type: functional
# [16] = non-specific 3'UTR reporter inhibition in Clone20-Shn3RL – cell-based, Renilla luciferase, cherry-picked, counter-screen for Shn3 inhibitor project, dose response (AID 624133); type: functional
# [17] = target: Glucose-6-phosphate 1-dehydrogenase (Homo sapiens, UniProt P11413); assay: inhibition of Homo sapiens G6PD, dose series – biochemical, fluorescence, selectivity assay for P. falciparum G6PD inhibitor project, dose response (AID 504792); type: functional
# [18] = Shn3 3'UTR reporter signal decrease – cell-based, Clone20 osteoblasts, firefly luciferase, cherry-pick, set 2, Schnurri-3 inhibitor project, dose response (AID 720490); type: functional;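 further: actives lower the luminescence signal as inhibitors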
# [19] = loss of viability in HepG2 cells – cell-based, CellTiter-Glo, cherry-picked, cytotoxicity control for Shn3 inhibitor project, dose response (AID 624134); type: functional
# [20] = Luminescence Cell-Based Dose Retest to Confirm Inhibitors of Cancer Stem Cells. [Related pubchem assays (depositor defined):AID2717, AID2721]; type: functional; details: Homo sapiens
# [21] = target: Heat shock protein HSP 90-alpha (Homo sapiens, UniProt P07900); type: functional, organism-based
# [22] = EF1alpha-driven Renilla reporter with control 3'UTR suppression – Clone20-Shn3RL cells, dual-Glo, cherry-pick, set 2, counter-screen for Shn3 3'UTR targeting project, dose response (AID 720724); type: functional, cell-based; details: Dual-Go Shn3RL
# Troponin, cardiac muscle = Troponin, cardiac muscle (Homo sapiens, UniProt P19429+P45379+P63316); assay: Fluorescence-based biochemical high throughput dose response assay for activators of the calcium sensitivity of cardiac Regulated Thin Filaments (RTF). [Related pubchem assays (depositor defined):AID493008, AID493018, AID504382, AID504383]; type: protein-complex assay
# Hexokinase HKDC1 = target: T2, Hexokinase HKDC1 (Homo sapiens, UniProt Q2TB90); assay: activation of HKDC1 glucose phosphorylation – biochemical, W721R variant, dose response (AID 504730); type: functional
# T2 sequence (Q2TB90 whole entry): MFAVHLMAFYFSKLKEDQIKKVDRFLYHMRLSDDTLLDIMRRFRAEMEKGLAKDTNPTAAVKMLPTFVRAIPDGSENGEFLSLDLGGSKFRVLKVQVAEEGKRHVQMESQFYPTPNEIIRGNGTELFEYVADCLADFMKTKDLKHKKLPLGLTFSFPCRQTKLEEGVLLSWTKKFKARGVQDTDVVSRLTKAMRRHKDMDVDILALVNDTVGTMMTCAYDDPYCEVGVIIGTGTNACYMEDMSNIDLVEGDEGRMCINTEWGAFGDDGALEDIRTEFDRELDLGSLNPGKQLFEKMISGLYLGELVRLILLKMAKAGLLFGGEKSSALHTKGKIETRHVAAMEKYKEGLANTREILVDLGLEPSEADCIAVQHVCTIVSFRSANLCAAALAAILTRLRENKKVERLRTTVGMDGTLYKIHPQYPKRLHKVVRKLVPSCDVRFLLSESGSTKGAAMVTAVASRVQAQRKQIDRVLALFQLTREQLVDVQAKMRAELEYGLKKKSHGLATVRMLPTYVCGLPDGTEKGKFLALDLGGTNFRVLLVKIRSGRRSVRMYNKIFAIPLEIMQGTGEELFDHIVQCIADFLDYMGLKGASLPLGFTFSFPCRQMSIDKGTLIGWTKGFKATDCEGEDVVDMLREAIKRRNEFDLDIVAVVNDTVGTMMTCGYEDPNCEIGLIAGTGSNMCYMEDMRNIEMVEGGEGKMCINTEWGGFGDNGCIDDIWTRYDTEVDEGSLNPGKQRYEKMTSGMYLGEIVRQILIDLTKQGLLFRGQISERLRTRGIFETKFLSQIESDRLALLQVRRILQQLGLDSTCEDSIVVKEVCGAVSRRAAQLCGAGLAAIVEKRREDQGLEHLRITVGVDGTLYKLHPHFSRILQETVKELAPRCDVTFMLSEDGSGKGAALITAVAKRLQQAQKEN
# Hexokinase-1 = Hexokinase-1 (Homo sapiens, UniProt P19367); assay: HK1 enzyme activation by HKDC1 hits – biochemical, selectivity assay for HKDC1 activator project, dose response (AID 504762); type: functional
# Phosphomannomutase 2 = Phosphomannomutase 2 (Homo sapiens, UniProt O15305); assay: Counter screen SAR assay for PMM2 inhibitors via a fluorescence intensity assay. [Related pubchem assays (depositor defined):AID1545, AID1574]
# [23] = target: T3, Rac GTPase-activating protein 1 (Homo sapiens, UniProt Q9H0H5); assay: blockers of MgcRacGAP-driven Rac1 GTP hydrolysis – biochemical, ADP Hunter fluorescence, primary and confirmatory, confirmation (AID 624330); type: functional
# T3 sequence (Q9H0H5 whole entry): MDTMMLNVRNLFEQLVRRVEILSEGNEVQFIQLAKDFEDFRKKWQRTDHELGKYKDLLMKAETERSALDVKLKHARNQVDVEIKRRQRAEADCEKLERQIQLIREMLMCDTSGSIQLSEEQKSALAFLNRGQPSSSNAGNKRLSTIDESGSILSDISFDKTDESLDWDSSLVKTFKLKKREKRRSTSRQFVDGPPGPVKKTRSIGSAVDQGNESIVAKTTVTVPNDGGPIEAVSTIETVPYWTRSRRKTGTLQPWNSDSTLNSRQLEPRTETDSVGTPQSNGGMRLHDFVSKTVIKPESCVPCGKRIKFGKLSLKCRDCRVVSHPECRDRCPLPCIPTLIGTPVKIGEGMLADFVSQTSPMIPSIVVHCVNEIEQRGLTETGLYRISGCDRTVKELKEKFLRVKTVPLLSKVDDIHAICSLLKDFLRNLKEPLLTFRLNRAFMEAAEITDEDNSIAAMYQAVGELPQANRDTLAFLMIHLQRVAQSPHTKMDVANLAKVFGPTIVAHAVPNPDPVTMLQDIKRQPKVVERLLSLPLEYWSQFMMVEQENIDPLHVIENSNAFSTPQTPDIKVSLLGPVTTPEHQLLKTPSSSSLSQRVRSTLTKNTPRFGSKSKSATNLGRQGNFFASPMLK
# [24] = target: T4, Mannose-6-phosphate isomerase (Homo sapiens, UniProt P34949); assay: phosphomannose isomerase inhibition – biochemical, fluorescence intensity, confirmation (AID 1535)
# T4 sequence (P34949 whole entry): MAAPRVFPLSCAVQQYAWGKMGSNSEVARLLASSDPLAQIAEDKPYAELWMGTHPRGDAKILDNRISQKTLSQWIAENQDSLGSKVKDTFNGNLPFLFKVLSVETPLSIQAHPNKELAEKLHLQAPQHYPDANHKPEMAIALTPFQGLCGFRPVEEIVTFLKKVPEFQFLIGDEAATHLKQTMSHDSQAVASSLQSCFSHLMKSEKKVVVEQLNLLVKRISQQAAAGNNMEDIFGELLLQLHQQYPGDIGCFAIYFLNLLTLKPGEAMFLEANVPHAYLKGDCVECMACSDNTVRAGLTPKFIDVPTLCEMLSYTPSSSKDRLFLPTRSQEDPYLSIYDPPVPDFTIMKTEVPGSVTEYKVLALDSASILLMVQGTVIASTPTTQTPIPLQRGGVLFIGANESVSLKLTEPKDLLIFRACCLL
# [25] = target: G-protein coupled receptor 55 (Homo sapiens, UniProt Q9Y2T6); assay: inhibition of LPI-stimulated GPR55 beta-arrestin translocation – imaging, U2OS, beta-arrestin-GFP, LPI agonist, primary screen (AID 2013); type: functional;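 further: antagonist potency measured as reduced agonist-driven arrestin aggregation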
# [26] = target: FAD-linked sulfhydryl oxidase ALR (Homo sapiens, UniProt P55789); assay: ALR-catalysed DTT oxidation blockers – biochemical, H2O2 detection, luminescence, cherry-pick, dose response (AID 493248)
# Large T antigen = Large T antigen (Simian virus 40, UniProt P03070); type: functional, Betapolyomavirus macacae;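 further: Confirmatory-stage PubChem screen for compounds that inhibit SV40 T antigen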
# [27] = target: T5, Polyadenylate-binding protein 1 (Homo sapiens, UniProt P11940); assay: MLLE binding blockers, Cy5 peptide tracer – biochemical, fluorescence polarization, Cy5-PAM2 peptide, secondary, miRNA deadenylation inhibitor project, dose response (AID 602260); type: functional; details: read-out: IC50_Mean
# [28] = target: T5, Polyadenylate-binding protein 1; assay: MLLE domain peptide-binding blockers, IC50 – biochemical, fluorescence polarization, FITC-PAM2 peptide, dose response (AID 602259); type: functional; details: read-out: IC50_Mean
# H9c2 = assay: cells; type: functional, cell-based; details: Rattus norvegicus, H9c2, Myocardium;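 further: confirmatory concentration-response retest of ultra-high-throughput screening hits for modulation of myocardial damage; cell death induced by hydrogen peroxide oxidative stress; compound pretreatment for 60 min then peroxide exposure for 2 h; potency is for protecting the cells against peroxide damage rather than for killing them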
# HEK293 = assay: EBV LMP1 TES2 canonical NF-kB signalling blockers – cell-based, HEK293, luciferase, cherry-pick, dose response (AID 588343); type: functional; details: Homo sapiens
# T1 sequence (P98170 whole entry): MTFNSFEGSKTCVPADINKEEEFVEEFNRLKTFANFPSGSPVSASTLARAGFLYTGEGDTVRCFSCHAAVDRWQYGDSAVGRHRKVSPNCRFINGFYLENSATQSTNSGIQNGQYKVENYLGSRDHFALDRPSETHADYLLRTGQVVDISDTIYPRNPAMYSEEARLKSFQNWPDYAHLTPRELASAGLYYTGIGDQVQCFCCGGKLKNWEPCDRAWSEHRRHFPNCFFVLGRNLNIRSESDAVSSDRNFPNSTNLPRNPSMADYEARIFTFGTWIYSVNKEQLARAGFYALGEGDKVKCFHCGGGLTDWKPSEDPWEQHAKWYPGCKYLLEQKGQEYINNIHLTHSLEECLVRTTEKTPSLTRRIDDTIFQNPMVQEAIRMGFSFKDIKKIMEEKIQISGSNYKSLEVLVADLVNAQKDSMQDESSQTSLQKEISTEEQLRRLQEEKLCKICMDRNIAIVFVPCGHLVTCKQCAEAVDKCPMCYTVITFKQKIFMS
# Chain of X-box-binding protein 1 (P17861 whole entry): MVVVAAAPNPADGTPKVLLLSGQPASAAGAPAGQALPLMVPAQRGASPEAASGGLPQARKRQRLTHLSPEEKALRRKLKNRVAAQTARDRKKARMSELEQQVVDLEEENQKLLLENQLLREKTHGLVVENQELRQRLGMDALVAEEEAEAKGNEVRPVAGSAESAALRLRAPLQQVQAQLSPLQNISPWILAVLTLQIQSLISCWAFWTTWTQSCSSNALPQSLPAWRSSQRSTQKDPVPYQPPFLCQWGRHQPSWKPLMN
# Chain of DNA dC->dU-editing enzyme APOBEC-3G (Q9HC16 whole entry): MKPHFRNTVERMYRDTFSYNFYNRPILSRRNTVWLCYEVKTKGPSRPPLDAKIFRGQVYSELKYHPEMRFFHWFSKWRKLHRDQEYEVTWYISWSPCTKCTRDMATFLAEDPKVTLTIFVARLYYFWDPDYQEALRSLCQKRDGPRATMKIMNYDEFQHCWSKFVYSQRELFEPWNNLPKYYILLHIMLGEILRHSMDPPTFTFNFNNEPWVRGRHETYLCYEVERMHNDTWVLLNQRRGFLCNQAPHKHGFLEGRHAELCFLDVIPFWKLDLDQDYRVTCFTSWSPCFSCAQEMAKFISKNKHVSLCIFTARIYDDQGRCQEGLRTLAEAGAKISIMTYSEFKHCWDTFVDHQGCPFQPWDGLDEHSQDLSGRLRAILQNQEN
# T5 sequence (P11940 whole entry, the tested form may be a part): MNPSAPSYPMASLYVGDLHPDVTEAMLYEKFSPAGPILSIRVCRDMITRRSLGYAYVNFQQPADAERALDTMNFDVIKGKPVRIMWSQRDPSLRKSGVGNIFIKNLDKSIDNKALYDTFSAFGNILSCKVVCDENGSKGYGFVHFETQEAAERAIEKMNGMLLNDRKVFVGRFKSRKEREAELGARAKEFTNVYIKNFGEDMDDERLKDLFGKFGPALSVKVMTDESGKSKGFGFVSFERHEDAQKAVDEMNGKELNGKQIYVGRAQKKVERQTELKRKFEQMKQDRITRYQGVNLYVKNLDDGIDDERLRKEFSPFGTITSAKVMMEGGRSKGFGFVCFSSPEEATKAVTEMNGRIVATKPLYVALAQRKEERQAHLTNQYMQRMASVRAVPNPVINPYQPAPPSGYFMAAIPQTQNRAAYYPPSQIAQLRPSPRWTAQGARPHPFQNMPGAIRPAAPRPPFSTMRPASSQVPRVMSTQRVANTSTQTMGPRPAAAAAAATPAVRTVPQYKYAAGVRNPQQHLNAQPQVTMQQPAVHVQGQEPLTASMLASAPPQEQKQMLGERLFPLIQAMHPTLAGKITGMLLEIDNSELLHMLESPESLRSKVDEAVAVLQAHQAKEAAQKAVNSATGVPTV
# Chain of G-protein coupled receptor 55 (Q9Y2T6 whole entry): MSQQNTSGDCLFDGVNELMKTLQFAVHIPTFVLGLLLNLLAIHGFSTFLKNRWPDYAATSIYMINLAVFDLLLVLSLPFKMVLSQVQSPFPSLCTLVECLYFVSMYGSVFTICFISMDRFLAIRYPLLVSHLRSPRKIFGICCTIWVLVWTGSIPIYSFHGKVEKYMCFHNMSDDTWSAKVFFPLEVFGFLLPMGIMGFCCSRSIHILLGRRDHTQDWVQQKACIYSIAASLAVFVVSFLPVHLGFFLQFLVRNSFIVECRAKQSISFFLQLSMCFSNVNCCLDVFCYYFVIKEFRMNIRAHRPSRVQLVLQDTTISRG
# Chain of Hexokinase-1 (P19367 whole entry): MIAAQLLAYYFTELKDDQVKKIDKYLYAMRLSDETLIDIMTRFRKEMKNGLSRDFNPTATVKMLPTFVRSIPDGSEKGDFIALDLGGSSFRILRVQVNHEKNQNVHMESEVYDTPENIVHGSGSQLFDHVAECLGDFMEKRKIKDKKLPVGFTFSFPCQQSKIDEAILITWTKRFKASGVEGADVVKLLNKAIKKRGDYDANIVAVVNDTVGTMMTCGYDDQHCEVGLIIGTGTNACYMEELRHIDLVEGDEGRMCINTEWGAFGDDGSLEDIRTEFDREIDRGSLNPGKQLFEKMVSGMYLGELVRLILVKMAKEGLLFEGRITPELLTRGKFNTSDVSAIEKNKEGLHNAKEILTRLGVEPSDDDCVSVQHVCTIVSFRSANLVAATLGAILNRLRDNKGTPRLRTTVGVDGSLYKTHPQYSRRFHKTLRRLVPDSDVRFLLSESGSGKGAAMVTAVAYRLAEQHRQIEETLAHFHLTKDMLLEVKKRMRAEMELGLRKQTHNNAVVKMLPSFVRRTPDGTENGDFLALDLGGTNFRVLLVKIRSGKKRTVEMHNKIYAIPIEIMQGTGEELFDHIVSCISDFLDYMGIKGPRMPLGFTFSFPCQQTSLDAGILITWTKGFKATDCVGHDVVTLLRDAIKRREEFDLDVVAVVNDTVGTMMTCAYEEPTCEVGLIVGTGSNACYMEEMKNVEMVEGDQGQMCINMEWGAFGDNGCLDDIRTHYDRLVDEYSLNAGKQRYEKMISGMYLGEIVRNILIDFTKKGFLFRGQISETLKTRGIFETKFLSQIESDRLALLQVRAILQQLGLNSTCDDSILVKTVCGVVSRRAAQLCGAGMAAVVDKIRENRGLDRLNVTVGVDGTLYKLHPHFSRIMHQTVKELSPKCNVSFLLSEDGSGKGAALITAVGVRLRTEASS
# Chain of FAD-linked sulfhydryl oxidase ALR (P55789 whole entry): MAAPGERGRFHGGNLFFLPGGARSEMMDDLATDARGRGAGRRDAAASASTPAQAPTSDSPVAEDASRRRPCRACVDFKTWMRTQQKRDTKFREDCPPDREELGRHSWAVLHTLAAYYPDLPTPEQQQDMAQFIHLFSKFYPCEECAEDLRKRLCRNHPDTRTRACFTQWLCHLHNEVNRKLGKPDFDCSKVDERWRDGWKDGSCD
# Chain of Large T antigen (P03070 whole entry): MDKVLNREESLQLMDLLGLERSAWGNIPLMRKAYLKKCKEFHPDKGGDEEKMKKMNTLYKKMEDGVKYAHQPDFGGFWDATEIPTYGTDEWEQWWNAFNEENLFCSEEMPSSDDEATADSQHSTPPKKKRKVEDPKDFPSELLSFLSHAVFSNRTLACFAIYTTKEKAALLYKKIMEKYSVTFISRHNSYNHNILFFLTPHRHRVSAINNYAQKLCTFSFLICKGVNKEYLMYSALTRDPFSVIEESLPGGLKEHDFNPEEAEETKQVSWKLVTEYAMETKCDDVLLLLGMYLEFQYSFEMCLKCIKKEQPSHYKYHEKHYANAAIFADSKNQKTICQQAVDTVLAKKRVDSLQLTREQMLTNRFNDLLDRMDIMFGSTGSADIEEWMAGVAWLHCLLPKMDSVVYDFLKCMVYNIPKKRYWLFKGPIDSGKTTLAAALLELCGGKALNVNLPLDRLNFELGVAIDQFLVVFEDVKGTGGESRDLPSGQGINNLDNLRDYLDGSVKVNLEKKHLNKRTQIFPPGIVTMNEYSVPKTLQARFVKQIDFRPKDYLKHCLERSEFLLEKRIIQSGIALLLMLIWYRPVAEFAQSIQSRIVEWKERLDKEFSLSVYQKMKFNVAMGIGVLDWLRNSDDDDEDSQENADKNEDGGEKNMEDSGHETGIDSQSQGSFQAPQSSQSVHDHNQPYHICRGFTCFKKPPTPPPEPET
# Chain of Beta-galactosidase (Q8VNN2 whole entry): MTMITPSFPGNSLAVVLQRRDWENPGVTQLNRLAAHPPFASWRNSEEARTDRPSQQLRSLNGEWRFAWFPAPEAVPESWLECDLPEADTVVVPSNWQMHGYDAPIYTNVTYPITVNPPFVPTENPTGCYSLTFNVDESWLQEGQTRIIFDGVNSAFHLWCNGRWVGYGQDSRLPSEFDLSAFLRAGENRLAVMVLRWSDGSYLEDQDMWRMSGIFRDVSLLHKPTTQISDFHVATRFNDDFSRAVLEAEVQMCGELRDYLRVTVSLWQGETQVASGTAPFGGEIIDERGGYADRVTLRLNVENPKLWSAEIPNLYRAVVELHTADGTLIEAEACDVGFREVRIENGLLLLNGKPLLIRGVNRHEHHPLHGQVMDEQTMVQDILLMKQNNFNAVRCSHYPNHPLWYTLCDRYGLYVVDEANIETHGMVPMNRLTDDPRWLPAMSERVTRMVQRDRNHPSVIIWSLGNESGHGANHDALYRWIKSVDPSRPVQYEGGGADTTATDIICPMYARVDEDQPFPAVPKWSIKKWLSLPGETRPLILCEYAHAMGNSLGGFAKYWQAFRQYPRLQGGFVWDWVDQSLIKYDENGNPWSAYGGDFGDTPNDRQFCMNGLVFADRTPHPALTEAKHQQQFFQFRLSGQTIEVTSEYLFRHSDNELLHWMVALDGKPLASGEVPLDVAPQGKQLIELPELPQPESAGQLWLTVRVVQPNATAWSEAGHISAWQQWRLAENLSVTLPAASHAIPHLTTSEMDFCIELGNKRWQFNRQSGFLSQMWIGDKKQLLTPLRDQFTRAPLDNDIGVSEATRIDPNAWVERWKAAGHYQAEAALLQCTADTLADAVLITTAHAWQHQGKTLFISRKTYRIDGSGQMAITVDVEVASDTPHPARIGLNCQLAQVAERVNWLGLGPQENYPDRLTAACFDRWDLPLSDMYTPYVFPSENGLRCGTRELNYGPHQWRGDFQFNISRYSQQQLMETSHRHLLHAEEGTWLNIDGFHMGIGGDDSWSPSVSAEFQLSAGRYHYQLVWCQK
smiles,measurement,setting,value
C=C(C=O)CC1CC(O)[C@]2(C)OC3CC4OC5C[C@]6(C)O[C@]7(C)CCC8OC9C[C@]%10(C)OC%11C(C)=CC(=O)OC%11CC%10OC9C[C@@H](C)C8OC7CC6O[C@]5(C)CC5OC5C4OC3CC2O1 (some centres not stated),EC50,BJ [1],2.93 µM (inconclusive)
same,Absolute IC50 (XBP1),X-box-binding protein 1,4.71 µM
same,EC50,BJ [2],1.17 µM (inconclusive)
same,EC50,BJ [3],0.735 µM (inconclusive)
Cc1ccnc(NS(=O)(=O)c2ccc(NC(=O)c3ccc([N+](=O)[O-])s3)cc2)n1,CC50,[4],> 20 µM (active)
same,IC50,cells,6.24 µM (active)
same,CC50,[5],10.2 µM (active)
same,CC50,[6],> 20 µM (active)
same,EC50,[7],> 60 µM (not active)
same,EC50,[8],0.967 µM (active)
O=C(/C=C/c1ccco1)Nc1ccc2nn(-c3ccccc3)nc2c1,EC50,[9],4.53 µM (active)
same,IC50,[10],> 100 µM (inactive)
same,EC50,[11],4.11 µM (active)
same,IC50,[12],> 100 µM (not active)
same,IC50,[13],5.43 µM (active)
O=C(O)CCCNC(=O)c1cncc(Br)c1,IC50,[10],> 100 µM (inactive)
same,IC50,[12],> 100 µM (not active)
Cc1ccc(NC(=O)c2ccc(Cl)c(N3C(=O)C=CC3=O)c2)cc1,AC50,[14],1.6 µM (active)
same,IC50,[15],37.7 µM (active)
same,IC50,Beta-galactosidase,> 66.6 µM (inactive)
same,AC50,[16],9.79 µM (active)
same,IC50,[17],48.8 µM (inactive)
same,AC50,[18],5.17 µM (active)
same,AC50,[19],55.1 µM (active)
same,AC50,[20],4.21 µM (active)
same,AC50,[21],3.64 µM (active)
same,AC50,[22],1.93 µM (active)
CCOC(=O)c1c(NC(=O)Cc2cccs2)sc(C(=O)NC2CCCCC2)c1C,Absolute IC50 (XBP1),X-box-binding protein 1,10 µM
COc1ccc(C)cc1NC(=O)C12CCC(C)(C(=O)O1)C2(C)C (configuration not stated),EC50,"Troponin, cardiac muscle",> 71.5 µM (inactive)
Cc1cc(C2=NN=C(Nc3ccc(S(=O)(=O)N4CCOCC4)cc3)SC2)c(C)n1CC1CCCO1 (configuration not stated),EC50,Hexokinase HKDC1,31.2 µM (inactive)
same,EC50,Hexokinase-1,29.5 µM (inactive)
Sc1nnc(Nc2ccccc2Cl)s1,IC50,Phosphomannomutase 2,> 100 µM (inactive)
same,IC50,[15],> 100 µM (inactive)
same,IC50,[23],54.8 µM (active)
same,IC50,[24],> 50 µM (inactive)
CCn1c(Cn2nnc(-c3ccccc3)n2)nnc1SCc1ccc(Cl)c(Cl)c1,IC50,[25],2.8 µM (active)
Nc1nc2ccc(S(=O)(=O)N3CCCCC3)cc2s1,AC50,[26],3.3 µM (active)
same,IC50,Large T antigen,8.51 µM (active)
same,IC50,[27],> 66 µM (inactive)
same,IC50,[28],> 66 µM (inactive)
same,IC50,[25],13.9 µM (inactive)
COc1cccc(-c2nnc(NC(=O)c3ccc(S(=O)(=O)N(CC(C)C)CC(C)C)cc3)o2)c1,CC50,[4],2.37 µM (active)
same,IC50,cells,16.3 µM (active)
same,IC50,H9c2,> 79 µM (inactive)
same,CC50,[5],0.996 µM (active)
same,CC50,[6],5.3 µM (active)
same,AC50,HEK293,8.51 µM (active)
